From patent US5129951A, “Aromatic aldehydes and alcohols as potato tuber sprout inhibitors” (priority 1991, dated 1992)

Legend:
potato tubers [1] = assay: Tuber texture/quality after exposure to compounds in headspace gas for 7 days (Example 1); conditions: 7 days in saturated headspace gas, 25° C.
potato tubers [2] = assay: Tuber texture and quality 14 days after direct application of aromatic compounds (Example 3); conditions: for Tuber Texture: control SS
Method: (§2) Because the aromatic aldehydes and alcohols may be applied to the stored potatoes by methods other than as volatiles, direct application of the compounds either as pure chemicals or as emulsions was also studied. Emulsions were prepared as either 1% or 10% (v/v) of each compound in distilled water containing 0.05% (v/v) Tween 80 as an emulsifier (control tubers were treated with Tween 80 only). Tubers were treated by dipping each tuber in the test emulsion for 10 seconds, whereupon excess liquid was allowed to drain off. Pure compounds in liquid phase were applied with an atomizing sprayer, ensuring that the entire tuber surface was coated. Each tuber was sprayed with approximately 0.1-0.2 ml of each compound tested. Six tubers per treatment were used, with two replicates, and all experiments were repeated once.

[3] = cited from earlier work; for Temperature at Which Vapor Pressure Equals 1 mm Hg: vapor pressure 1 mm Hg
potato tubers [4] = assay: Tuber sprouting 14 days after direct application of aromatic compounds (Example 3); assay type: in vivo, Solanum tuberosum L. cv `Norchip`; conditions: for % Eyes Sprouted: 25° C., control 98, LSD (0.05) 14
Method: as §2

potato tubers [5] = assay: Sprout inhibition of tubers exposed to compounds in headspace gas for 7 days (Example 1); assay type: in vivo, Solanum tuberosum L. cv `Norchip`; conditions: 7 days in saturated headspace gas, 25° C.; for % Eyes Sprouted: dark, control 100, LSD (0.05) 12
fungi [6] = assay: Fungal growth on tubers exposed to compounds in headspace gas for 7 days (Example 1); assay type: in vivo; on Fungal growth: key: -: no fungi visible; +: = some fungi; ++: heavy fungal growth
Description: (control flasks lacked any compounds).

potato tubers [7] = assay: Tuber sprouting after removal from exposure to volatilized aromatics for 1, 2, 4, 7 or 10 days (Example 2); assay type: in vivo, Solanum tuberosum L. cv `Norchip`; conditions: 14 days after removal; for % Eyes Sprouted: 25° C., LSD (0.05) 24
Method: (§1) Each treatment consisted of placing the tubers in sealed 9.2 l flasks containing excess levels of the treatment compounds at 25° C. as in Example 1. Three tubers were then removed from each treatment after 1, 2, 4, 7, and 10 days, and placed in flasks containing fresh humidified air (free of any additional volatilized compounds) at 25° C. Control tubers were placed in sealed flasks lacking any added compounds and three were removed after 1 and 10 days. Fourteen days after removal from the sealed flasks containing treatment compounds, all tubers were examined for percentage of eyes sprouted, tuber texture, and fungal growth. Each treatment was replicated once and each experiment was repeated once.

[8] = Theoretical saturated headspace concentration calculated from known vapor pressures; assay type: physicochemical; conditions: calculated from known vapor pressures by Ideal Gas Law
Method: Because these compounds were difficult to quantitate by gas chromatography at the concentration levels in saturated headspaces, theoretical saturated concentrations were calculated by converting known vapor pressures of each compound at 25° C. to molar concentrations using the Ideal Gas Law, […], where n/V is the molar concentration, P is the partial pressure (atm), R is the Ideal Gas constant (0.0821 l atm/mol ° K.), and T is the temperature (° K.).

fungi [9] = assay: Fungal growth 14 days after direct application of aromatic compounds (Example 3); assay type: in vivo; conditions: control +; further: key: -: no fungi visible; +: = some fungi; ++: heavy fungal growth
Method: as §2

fungi [10] = assay: Fungal growth on tubers after removal from exposure to volatilized aromatics (Example 2); assay type: in vivo
Method: as §1

potato tubers [11] = assay: Tuber sprouting after removal from exposure to volatilized aromatics for 1, 2, 4, 7 or 10 days (Example 2); assay type: in vivo, Solanum tuberosum L. cv `Norchip`; conditions: exposure for 10 days, 75 days after removal
potato tubers [12] = assay: Tuber texture after removal from exposure to volatilized aromatics (Example 2); assay type: in vivo, Solanum tuberosum L. cv `Norchip`; conditions: 14 days after removal from exposure
Method: as §1

potato = conditions: Aliaga and Feldheim (1985); cited from earlier work
[13] = 7 days in saturated headspace gas, 25° C.
[14] = 7 days in saturated headspace gas, 25° C., control ++
[15] = 1 day exposure, 14 days after removal, control +
[16] = 4 days exposure, 14 days after removal
[17] = 7 days exposure, 14 days after removal
[18] = 10 days exposure, 14 days after removal, control +
[19] = 14 days after removal from exposure
[20] = 2 days exposure, 14 days after removal

| SMILES | tuber condition (potato tubers [1]) | Tuber Texture (potato tubers [2]; 10% emulsion (dip)) | Tuber Texture (potato tubers [2]; 100% (pure, sprayed)) | Temperature at Which Vapor Pressure Equals 1 mm Hg [3] | Solubility in Water at 25° C. [3] | % Eyes Sprouted (potato tubers [4]; 1% emulsion (dip)) | % Eyes Sprouted (potato tubers [4]; 10% emulsion (dip)) | % Eyes Sprouted (potato tubers [4]; 100% (pure, sprayed)) | effect on tuber sprouting (potato tubers [5]) | % Eyes Sprouted (potato tubers [5]) | effect on fungal growth (fungi [6]; [13]) | Fungal Growth (fungi [6]; [14]) | % Eyes Sprouted (potato tubers [7]; 1 day exposure, control 96) | % Eyes Sprouted (potato tubers [7]; 2 days exposure) | % Eyes Sprouted (potato tubers [7]; 4 days exposure) | % Eyes Sprouted (potato tubers [7]; 7 days exposure) | Concentration of Saturated Headspace at 25° C. [8] | Fungal Growth (fungi [9]; 1% emulsion (dip)) | Fungal Growth (fungi [9]; 100% (pure, sprayed)) | effectiveness of main oil components in inhibiting sprouting, weight loss and rot (potato) | also measured |
| --- | --- | --- | --- | --- | --- | --- | --- | --- | --- | --- | --- | --- | --- | --- | --- | --- | --- | --- | --- | --- | --- |
| O=CC=Cc1ccccc1 [Cinnamaldehyde] | firm and appeared healthy | S,N | S,N | 76.1 °C | sl. soluble | 0% | 0% | 0% | completely inhibited sprouting | 0% | prevented any visible fungal growth | - | 62% | 80% | 64% | 24% | 1900 nM | - | - |  | tuber condition (potato tubers [2]; 1% emulsion): remained hard, with no necrosis or surface pitting; inhibition of sprouting (potato tubers [4]; 1% emulsion): completely inhibited sprouting without damaging the potato tubers; % Eyes Sprouted (potato tubers [7]; 10 days exposure, control 100): 0%; inhibition of tuber sprouting (potato tubers [7]; exposure for 7 or fewer days): did not completely inhibit sprouting; inhibition of tuber sprouting (potato tubers [7]; exposure for 10 days): completely inhibited sprouting; Fungal Growth (fungi [10]; [15]): -; Fungal Growth (fungi [10]; [16]): -; Fungal Growth (fungi [10]; [17]): -; Fungal Growth (fungi [10]; [18]): -; Fungal Growth (fungi [10]; [19]): a small amount of mycelia was detected in a bruised area; sprouting (potato tubers [11]): remained unsprouted |
| CC(C)c1ccc(C=O)cc1 [Cuminaldehyde] | firm and appeared healthy | SS,N | SS,N | 58.0 °C | insoluble | 5% | 43% | 0% | completely inhibited sprouting | 0% | prevented any visible fungal growth | - | 63% | 68% | 49% | 8% | 6400 nM | - | - |  | % Eyes Sprouted (potato tubers [7]; 10 days exposure, control 100): 0%; inhibition of tuber sprouting (potato tubers [7]; exposure for 7 or fewer days): did not completely inhibit sprouting; inhibition of tuber sprouting (potato tubers [7]; exposure for 10 days): completely inhibited sprouting; Fungal Growth (fungi [10]; [15]): -; Fungal Growth (fungi [10]; [20]): -; Fungal Growth (fungi [10]; [16]): -; Fungal Growth (fungi [10]; [17]): -; Fungal Growth (fungi [10]; [18]): -; sprouting (potato tubers [11]): remained unsprouted |
| CCOC(=O)C=Cc1ccccc1 [Ethyl cinnamate] |  |  |  | 87.6 °C | insoluble |  |  |  | suppressed sprouting to some degree | 64% |  | + |  |  |  |  | 700 nM |  |  |  |  |
| C=CCc1ccc(O)c(OC)c1 [Eugenol, reference compound] | remained firm | SS,N | S,N | 78.4 °C |  | 32% | 7% | 0% | no significant effect on tuber sprouting | 94% | especially heavy growth | ++ |  |  |  |  | 1600 nM | ++ | - |  |  |
| O=CCCc1ccccc1 [Hydrocinnamaldehyde, 3-phenyl-propanal] | firm and appeared healthy | S | S,N |  | sl. soluble | 25% | 0% | 0% | completely inhibited sprouting | 0% | prevented any visible fungal growth | - | 90% | 79% | 66% | 51% |  | - | - |  | % Eyes Sprouted (potato tubers [7]; 10 days exposure, control 100): 24%; Fungal Growth (fungi [9]; 10% emulsion (dip)): ++; Fungal Growth (fungi [10]; [15]): -; Fungal Growth (fungi [10]; [20]): -; Fungal Growth (fungi [10]; [16]): -; Fungal Growth (fungi [10]; [17]): -; Fungal Growth (fungi [10]; [18]): - |
| COC(=O)C=Cc1ccccc1 [Methyl cinnamate] |  |  |  | 77.4 °C | insoluble |  |  |  | suppressed sprouting to some degree | 16% | suppressed fungal growth | - |  |  |  |  | 1600 nM |  |  |  |  |
| Oc1ccccc1 [Phenol] | blackened, soft to the touch, and displayed evident tissue necrosis |  |  | 40.1 °C |  |  |  |  | completely inhibited sprouting | 0% |  |  |  |  |  |  | 21000 nM |  |  |  | Tuber Texture (potato tubers [1]; control SS): S,N; Fungal Growth (fungi [6]; in vivo): -; effect on fungal growth (fungi [6]; in vivo): prevented any visible fungal growth |
| O=Cc1ccccc1O [Salicylaldehyde] | firm and appeared healthy | S,N | S,N |  |  | 0% | 0% | 0% | completely inhibited sprouting | 0% | prevented any visible fungal growth | - | 0% | 0% | 0% | 0% | 36000 nM | ++ | - |  | Tuber Texture (potato tubers [2]; 1% emulsion (dip)): S,N; tuber firmness (potato tubers [12]): firm; % Eyes Sprouted (potato tubers [7]; 10 days exposure, control 100): 0%; inhibition of tuber sprouting (potato tubers [7]; after 1 or more days of treatment): completely inhibited tuber sprouting; Fungal Growth (fungi [9]; 10% emulsion (dip)): -; Fungal Growth (fungi [10]; [15]): -; Fungal Growth (fungi [10]; [20]): -; Fungal Growth (fungi [10]; [16]): -; Fungal Growth (fungi [10]; [17]): -; Fungal Growth (fungi [10]; [18]): -; Fungal Growth (fungi [10]; [19]): lacked visible fungal growth; sprouting (potato tubers [11]): remained unsprouted |
| C=C(C)C1CC=C(C)CC1 (stereo not shown) [limonene] |  |  |  |  |  |  |  |  |  |  |  |  |  |  |  |  |  |  |  | effective |  |
| CC1CCC(C(C)C)C(=O)C1 (stereo not shown) [menthone/isomenthone] |  |  |  |  |  |  |  |  |  |  |  |  |  |  |  |  |  |  |  | effective |  |
| CC(C)=C1CC[C@@H](C)CC1=O [pulegone] |  |  |  |  |  |  |  |  |  |  |  |  |  |  |  |  |  |  |  | effective |  |
| CC1=CCC2CC1C2(C)C (stereo not drawn) [α-pinene] |  |  |  |  |  |  |  |  |  |  |  |  |  |  |  |  |  |  |  | effective |  |
| C=C1CCC2CC1C2(C)C (stereo not drawn) [β-pinene] |  |  |  |  |  |  |  |  |  |  |  |  |  |  |  |  |  |  |  | effective |  |
